Like-named read-outs stand apart in the source and are kept apart here.
Experiments:
AChE [1] = molecular target: T1, AChE (Electrophorus electricus, UniProt O42275); assay: Cholinesterase inhibition assay; format: biochemical, electric eels; settings: for fold decrease in potency against AChE: compared to the most potent compound (a11)
MAO-A [2] = assay: Enzyme kinetic study; format: biochemical; settings: Lineweaver-Burk plot, substrate p-tyramine
BChE [3] = molecular target: T2, BChE (Equus caballus, UniProt P81908); assay: Cholinesterase inhibition assay; format: biochemical, horse; settings: for fold decrease in activity against BChE: compared to the di-methoxy substituted compound, printed as (a5)
BChE [4] = molecular target: T2, BChE; assay: Enzyme kinetic study; format: biochemical; settings: Lineweaver-Burk plot, substrate BTCII
MAO-A [5] = molecular target: T3, MAO-A (Mus musculus, UniProt Q64133); assay: Monoamine oxidase A inhibition assay; format: biochemical, Mice; settings: compared to (a3)
T3 sequence (Q64133 1-526): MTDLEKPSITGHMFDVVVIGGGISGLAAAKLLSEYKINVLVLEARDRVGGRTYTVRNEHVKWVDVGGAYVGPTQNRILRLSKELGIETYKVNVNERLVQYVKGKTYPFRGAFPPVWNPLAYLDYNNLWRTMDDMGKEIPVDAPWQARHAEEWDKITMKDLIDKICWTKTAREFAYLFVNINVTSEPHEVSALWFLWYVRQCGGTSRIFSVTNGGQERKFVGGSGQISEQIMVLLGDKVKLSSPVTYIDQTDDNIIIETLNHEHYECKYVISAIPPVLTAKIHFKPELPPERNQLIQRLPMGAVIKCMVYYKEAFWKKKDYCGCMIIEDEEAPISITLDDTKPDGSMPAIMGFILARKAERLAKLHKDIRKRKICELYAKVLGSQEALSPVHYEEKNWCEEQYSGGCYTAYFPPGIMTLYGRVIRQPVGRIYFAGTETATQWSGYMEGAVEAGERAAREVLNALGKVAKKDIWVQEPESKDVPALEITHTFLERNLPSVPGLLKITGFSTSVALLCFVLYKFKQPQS

MAO-B [6] = assay: Enzyme kinetic study; format: biochemical; settings: Lineweaver-Burk plot, substrate p-tyramine
MAO-B [7] = molecular target: T4, MAO-B (Mus musculus, UniProt Q8BW75); assay: Monoamine oxidase B inhibition assay; format: biochemical, Mice; settings: compared to the most potent compound (a12)
T4 sequence (Q8BW75 2-520): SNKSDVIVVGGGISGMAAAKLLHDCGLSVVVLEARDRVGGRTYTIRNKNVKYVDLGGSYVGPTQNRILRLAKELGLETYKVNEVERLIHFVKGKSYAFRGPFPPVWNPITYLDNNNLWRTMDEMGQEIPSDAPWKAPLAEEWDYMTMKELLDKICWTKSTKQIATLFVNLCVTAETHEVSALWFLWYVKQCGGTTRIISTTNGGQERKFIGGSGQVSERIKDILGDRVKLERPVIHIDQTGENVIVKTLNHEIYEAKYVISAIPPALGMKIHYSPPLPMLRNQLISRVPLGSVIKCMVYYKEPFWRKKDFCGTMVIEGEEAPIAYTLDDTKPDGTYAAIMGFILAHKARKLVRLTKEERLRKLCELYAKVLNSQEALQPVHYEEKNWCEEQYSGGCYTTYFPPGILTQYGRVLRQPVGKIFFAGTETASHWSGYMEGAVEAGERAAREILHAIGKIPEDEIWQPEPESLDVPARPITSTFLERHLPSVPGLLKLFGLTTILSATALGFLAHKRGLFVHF

AChE [8] = molecular target: T1, AChE; assay: Enzyme kinetic study; format: biochemical; settings: Lineweaver-Burk plot, substrate ATCII
[9] = read-out: IC50 BChE, N/A = Not active (footnote b)

T1 sequence (O42275 24-633): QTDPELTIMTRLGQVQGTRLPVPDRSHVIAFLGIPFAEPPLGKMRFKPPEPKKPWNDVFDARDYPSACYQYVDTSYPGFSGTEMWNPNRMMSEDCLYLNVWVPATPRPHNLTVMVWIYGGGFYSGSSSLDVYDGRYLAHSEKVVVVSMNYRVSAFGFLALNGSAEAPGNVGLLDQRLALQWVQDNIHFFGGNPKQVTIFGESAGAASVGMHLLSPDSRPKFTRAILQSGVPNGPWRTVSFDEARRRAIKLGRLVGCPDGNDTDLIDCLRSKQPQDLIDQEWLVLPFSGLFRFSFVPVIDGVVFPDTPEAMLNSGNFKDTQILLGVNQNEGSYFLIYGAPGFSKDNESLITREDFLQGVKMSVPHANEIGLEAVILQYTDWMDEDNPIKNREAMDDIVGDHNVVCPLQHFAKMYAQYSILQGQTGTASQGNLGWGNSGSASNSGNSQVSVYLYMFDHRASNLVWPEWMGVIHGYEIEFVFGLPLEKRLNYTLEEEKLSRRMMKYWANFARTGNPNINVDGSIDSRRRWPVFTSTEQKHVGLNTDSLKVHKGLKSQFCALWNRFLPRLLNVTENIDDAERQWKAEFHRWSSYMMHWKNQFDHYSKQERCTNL
T2 sequence (P81908 whole entry): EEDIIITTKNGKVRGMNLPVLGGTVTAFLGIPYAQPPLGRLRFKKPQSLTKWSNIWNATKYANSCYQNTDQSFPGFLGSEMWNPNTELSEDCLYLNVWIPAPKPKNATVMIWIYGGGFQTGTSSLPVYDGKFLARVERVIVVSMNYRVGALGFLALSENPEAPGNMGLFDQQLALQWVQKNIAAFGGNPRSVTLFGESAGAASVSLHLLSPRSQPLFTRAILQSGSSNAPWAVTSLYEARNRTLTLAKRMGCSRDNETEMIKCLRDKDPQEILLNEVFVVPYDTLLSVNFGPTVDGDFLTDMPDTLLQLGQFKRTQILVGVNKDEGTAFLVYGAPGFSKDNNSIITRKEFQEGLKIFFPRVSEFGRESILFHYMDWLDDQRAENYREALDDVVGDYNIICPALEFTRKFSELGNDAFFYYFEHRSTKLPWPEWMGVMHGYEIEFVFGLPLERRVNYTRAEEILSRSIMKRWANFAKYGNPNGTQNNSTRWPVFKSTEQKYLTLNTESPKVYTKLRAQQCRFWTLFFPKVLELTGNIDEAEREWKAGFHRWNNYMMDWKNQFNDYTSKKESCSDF

Row | Compound | IC50 (AChE [1]) [µM] | fold decrease in potency against AChE (AChE [1]) [fold] | IC50 (AChE [1]; read-out: IC50 AChE) [µM] | further results
1 | N#Cc1ccc(NS(=O)(=O)c2cccc3cccnc23)cc1 [a9, N-(4-Cyanophenyl)quinoline-8-sulfonamide] | 3.78 ± 0.92 | 7 | – | –
2 | O=S(=O)(NCc1ccc(Cl)cc1Cl)c1cccc2cccnc12 [a15, N-(2,4-Dichlorobenzyl)-8-quinolinesulfonamide] | 1.4 ± 0.54 | ~2.5 | – | –
3 | O=S(=O)(Nc1cccc(I)c1)c1cccc2cccnc12 [a1, N-(3-Iodophenyl)quinoline-8-sulfonamide] | 1.11 ± 0.57 | ~2 | – | –
4 | O=S(=O)(NCc1ccccc1Cl)c1cccc2cccnc12 [a16, N-(2-Chlorobenzyl)-8-quinolinesulfonamide] | 1.92 ± 0.87 | ~4 | – | –
5 | O=S(=O)(NCc1cccc(Cl)c1)c1cccc2cccnc12 [a5, N-(3-Chlorobenzyl)quinoline-8-sulfonamide] | 1.95 ± 1.07 | ~4 | – | mode of inhibition toward MAO-A (MAO-A [2]): competitive inhibition; IC50 (BChE [3]): 2.84 ± 1.07 µM; fold decrease in activity against BChE (BChE [3]): ~2 fold
6 | O=S(=O)(Nc1ccc(I)cc1)c1cccc2cccnc12 [a8, N-(4-Iodophenyl)quinoline-8-sulfonamide] | 1.15 ± 0.72 | ~2 | – | –
7 | N-(3,4-Dimethoxybenzyl)quinoline-8-sulfonamide [a6] | – | 2 | 1.11 ± 0.47 | mode of inhibition toward BChE (BChE [4]): competitive inhibition; IC50 (BChE [3]; [9]): 1.1 ± 0.89 µM
8 | N-(4-Florobenzyl)-8-quinolinesulfonamide [a12] | – | – | 2.65 ± 0.97 | fold decrease in activity against MAO-A (MAO-A [5]): 2 fold; mode of inhibition toward MAO-B (MAO-B [6]): competitive inhibition; IC50 (BChE [3]; [9]): 1.16 ± 0.77 µM
9 | O=S(=O)(NCc1ccc(Cl)cc1)c1cccc2cccnc12 [a4, N-(4-Chlorobenzyl)quinoline-8-sulfonamide] | 2.18 ± 1.17 | ~4 | – | –
10 | N-(2,6-Difluorophenyl)quinoline-8-sulfonamide [a3] | – | ~3 | 1.01 ± 0.59 | fold reduction in potency against MAO-B (MAO-B [7]): 4 fold
11 | N-(2,3-Dihydro-1H-benzo[d]imidazole-2-yl)quinoline-8-sulfonamide [a7] | – | – | 1.73 ± 0.87 | fold reduction in potency against MAO-B (MAO-B [7]): 2 fold
12 | O=S(=O)(NCC1CCCCC1)c1cccc2cccnc12 [a10, N-(Cyclohexylmethyl)quinoline-8-sulfonamide] | 1.36 ± 0.77 | – | – | –
13 | N-(2-Hydroxyphenyl)quinoline-8-sulfonamide [a11] | – | – | 0.58 ± 0.05 | mode of inhibition toward AChE (AChE [8]): competitive inhibition; fold reduction in potency against MAO-B (MAO-B [7]): 2 fold
14 | Cc1ccc(F)c(CNS(=O)(=O)c2cccc3cccnc23)c1 [a2, N-(2-Fluoro-5-methylphenzyl)quinoline-8-sulfonamide] | – | ~3 | 2.58 ± 0.97 | fold decrease in activity against MAO-A (MAO-A [5]): 4 fold; fold reduction in potency against MAO-B (MAO-B [7]): 4 fold
15 | COc1ccc(CNS(=O)(=O)c2cccc3cccnc23)cc1 [a18, N-(4-Methoxybenzyl)-8-quinolinesulfonamide] | 1.01 ± 0.61 | 2 | – | IC50 (BChE [3]): 2.78 ± 0.92 µM; fold decrease in activity against BChE (BChE [3]): 2 fold
16 | O=S(=O)(NCc1cc(F)cc(C(F)(F)F)c1)c1cccc2cccnc12 [a14, N-(3-Fluoro-5-(trifluoromethyl)benzyl)quinoline-8-sulfonamide] | – | – | 3.06 ± 0.77 | IC50 (BChE [3]; [9]): 1.18 ± 0.57 µM
17 | N-(2-Fluorobenzyl)quinoline-8-sulfonamide [a13] | – | 3 | 1.65 ± 0.97 | fold decrease in activity against MAO-A (MAO-A [5]): 2 fold; fold reduction in potency against MAO-B (MAO-B [7]): 3 fold
